From DBAASP come the findings set out here.

Test systems include Escherichia coli; Klebsiella pneumoniae; Escherichia coli CFT073; Escherichia coli UTI89; Escherichia coli E44813; Candida albicans CA1; Escherichia coli EC16; Escherichia coli EC18; Acinetobacter baumannii; Enterobacter cloacae; Klebsiella aerogenes; Klebsiella oxytoca; Proteus mirabilis; Pseudomonas aeruginosa; Salmonella enterica; Serratia marcescens; Staphylococcus aureus.
What all share (assay): ≥ marks a high value that may be exact or a test limit, other limits are often not marked, values filed in µg/mL are converted to µM
In assay [1] the test system is Escherichia coli ATCC 25922.
For assay [2], the system named is Pseudomonas aeruginosa 885149.
The test system of assay [3] is Pseudomonas aeruginosa 891.
Assay [4] deals with Pseudomonas aeruginosa ATCC 27853.
In assay [5] the test system is Staphylococcus aureus ATCC 25923.
Assay [6] deals with Staphylococcus aureus MIU-68A.
Assay [7] has as its system Aspergillus oryzae NBRC 100959.
Assay [8] deals with Candida viswanathii NBRC 10321.
In assay [9] the test system is Escherichia coli NBRC 3972.
The subject of assay [10] is Micrococcus luteus NBRC 3333.
The test system of assay [11] is Staphylococcus epidermidis NBRC 12993.
For assay [12], the system named is Pseudomonas aeruginosa PAO1.
For assay [13], the system named is Bacillus subtilis CICC 24434.
The test system of assay [14] is Listeria monocytogenes CICC 21533.
Assay [15] concerns Pasteurella multocida C48-3.
Assay [16] relates to Salmonella enterica subsp. enterica serovar Choleraesuis C78-1.
In assay [17] the test system is Salmonella typhimurium SL1344.
Assay [18] deals with Staphylococcus epidermidis LY8.
Assay [19] concerns Acinetobacter baumannii AB1.
For assay [20], the system named is Candida albicans ATCC 90029.
The test system of assay [21] is Candida krusei ATCC 40147.
Assay [22] concerns Candida parapsilosis ATCC 90018.
The test system of assay [23] is Candida tropicalis ATCC 750.
For assay [24], the system named is Klebsiella pneumoniae KP1.
The subject of assay [25] is Pseudomonas aeruginosa PA14.
The subject of assay [26] is Escherichia coli ATCC 35218.
The subject of assay [27] is Staphylococcus epidermidis.
The subject of assay [28] is Staphylococcus haemolyticus.
Assay [29] deals with Staphylococcus saprophyticus.

Values after ≈ are worked out from the molar mass of the structure shown. Bounds are passed on as bounds.

Regarding `CC[C@H](C)[C@H](NC(=O)[C@@H](N)CCCCN)C(=O)N[C@@H](CCCN=C(N)N)C(=O)N[C@H](C(=O)N[C@@H](CCCN=C(N)N)C(=O)N[C@@H](CC(C)C)C(=O)N[C@@H](CO)C(=O)N[C@@H](C)C(=O)O)C(C)C` [KIRVRLSA], the MIC (commonly the smallest concentration in the dilution series that meets the test's criterion for growth inhibition) in [1] is 17 µM (≈ 16 µg/mL); in the assay on Escherichia coli, 136 µM (≈ 128 µg/mL); in the assay on Klebsiella pneumoniae, greater than 136 µM; in [2], no less than 34 µM; in [3], 17 µM (≈ 16 µg/mL); in assay [4] it was 17 µM (≈ 16 µg/mL). Moreover, the results for the MIC in assay [5] and in [6] were 136 µM (≈ 128 µg/mL) and no less than 136 µM, respectively.

On to `CSCC[C@H](NC(=O)[C@H](CCCCN)NC(=O)[C@@H](NC(=O)[C@H](CCCN=C(N)N)NC(=O)[C@H](CCCCN)NC(=O)[C@H](Cc1c[nH]c2ccccc12)NC(=O)[C@H](Cc1ccccc1)NC(=O)[C@H](CCCN=C(N)N)NC(=O)[C@H](CCCCN)NC(=O)[C@H](CC(C)C)NC(=O)[C@H](CCCCN)NC(=O)[C@@H](N)CCCN=C(N)N)C(C)C)C(=O)O` [RKLKRFWKRVKM], for which the MIC was 14.9 µM (≈ 25 µg/mL) in assay [7]; 29.8 µM (≈ 50 µg/mL) in assay [8]; no less than 239 µM in [9]; 29.8 µM (≈ 50 µg/mL) in assay [10]; 14.9 µM (≈ 25 µg/mL) in assay [11].

Consider `CC[C@H](C)[C@H](N)C(=O)N[C@@H](C)C(=O)N[C@@H](C)C(=O)N[C@@H](CCC(=O)O)C(=O)N[C@@H](CCCN=C(N)N)C(=O)N[C@@H](CCCN=C(N)N)C(=O)N[C@@H](Cc1ccc(O)cc1)C(=O)N[C@@H](C)C(=O)N[C@H](C(=O)N[C@H](C(=O)N[C@@H](Cc1ccc(O)cc1)C(=O)N[C@@H](CCC(N)=O)C(=O)N[C@@H](C)C(=O)N[C@@H](CCCN=C(N)N)C(=O)N[C@@H](CC(C)C)C(=O)N[C@@H](Cc1c[nH]c2ccccc12)C(=O)N[C@@H](C)C(=O)N[C@@H](Cc1ccccc1)C(=O)O)[C@@H](C)CC)[C@@H](C)O` [IAAERRYATIYQARLWAF], for which the MIC in assay [1] is 56.8 µM (≈ 125 µg/mL); with Escherichia coli CFT073 it was no less than 56.8 µM; in the assay with Escherichia coli UTI89 it was no less than 56.8 µM; in the assay on Escherichia coli, 80.4 µM (≈ 177 µg/mL); in assay [4], 56.8 µM (≈ 125 µg/mL); in assay [12], 56.8 µM (≈ 125 µg/mL).

For `CC[C@H](C)[C@H](NC(=O)[C@@H](NC(=O)[C@@H](N)CCCN=C(N)N)[C@@H](C)CC)C(=O)N[C@@H](CC(=O)O)C(=O)N[C@@H](CCCN=C(N)N)C(=O)N[C@@H](CC(C)C)C(=O)N[C@@H](Cc1c[nH]c2ccccc12)C(=O)N[C@@H](CCCN=C(N)N)C(=O)N[C@H](C(=O)N[C@@H](CCCN=C(N)N)C(=O)N[C@@H](CCCN=C(N)N)C(=O)N1CCC[C@H]1C(=O)N[C@@H](CCC(N)=O)C(=O)N[C@@H](CCCCN)C(=O)N1CCC[C@H]1C(=O)N[C@@H](CCCCN)C(=O)N[C@@H](Cc1ccccc1)C(=O)N[C@H](C(=O)N[C@H](C(=O)N[C@H](C(=O)N[C@@H](Cc1c[nH]c2ccccc12)C(=O)N[C@H](C(=O)N[C@@H](CCCN=C(N)N)C(=O)O)C(C)C)C(C)C)[C@@H](C)O)C(C)C)C(C)C` [RIIDRLWRVRRPQKPKFVTVWVR], the MIC in [13] was 0.519 µM (≈ 1.56 µg/mL); against Escherichia coli E44813 it was 4.16 µM (≈ 12.5 µg/mL); in [14] it was no less than 41.6 µM; in assay [15] it was 0.519 µM (≈ 1.56 µg/mL); in [16] it was 0.26 µM (≈ 0.78 µg/mL); in assay [17], 0.519 µM (≈ 1.56 µg/mL). Besides, the MIC in assay [5] was found to be 0.0083 µM (≈ 0.0249 µg/mL); in [18], 8.32 µM (≈ 25 µg/mL).

In the case of `CC[C@H](C)[C@H](NC(=O)CNC(=O)[C@H](C)NC(=O)[C@H](CCCCN)NC(=O)CNC(=O)[C@H](CCSC)NC(=O)[C@H](CCC(=O)O)NC(=O)[C@H](CCCCN)NC(=O)[C@@H](NC(=O)[C@@H](NC(=O)[C@H](CCCCN)NC(=O)[C@@H](NC(=O)[C@@H](NC(=O)[C@H](CCCCN)NC(=O)[C@H](CC(=O)O)NC(=O)[C@H](CCCCN)NC(=O)[C@H](Cc1cnc[nH]1)NC(=O)[C@H](CCCCN)NC(=O)[C@H](CC(N)=O)NC(=O)[C@H](Cc1c[nH]c2ccccc12)NC(=O)[C@H](Cc1c[nH]c2ccccc12)NC(=O)[C@H](CC(=O)O)NC(=O)[C@H](CCCCN)NC(=O)[C@H](CC(C)C)NC(=O)CN)[C@@H](C)CC)C(C)C)C(C)C)C(C)C)C(=O)N[C@@H](CC(N)=O)C(=O)N[C@@H](C)C(=O)N[C@@H](C)C(N)=O` [GLKDWWNKHKDKIVKVVKEMGKAGINAA], the MIC in assay [19] stood at 10 µM (≈ 31.6 µg/mL); in assay [20] it was 10 µM (≈ 31.6 µg/mL); against Candida albicans CA1 it was 5 µM (≈ 15.8 µg/mL); in assay [21], 2.5 µM (≈ 7.91 µg/mL); in assay [22], 10 µM (≈ 31.6 µg/mL); in assay [23], 10 µM (≈ 31.6 µg/mL). The MIC against Escherichia coli EC16 was determined as 5 µM (≈ 15.8 µg/mL); with Escherichia coli EC18 it was 10 µM (≈ 31.6 µg/mL); in assay [24], 5 µM (≈ 15.8 µg/mL); in [25], 5 µM (≈ 15.8 µg/mL).

As to `CC[C@H](C)[C@H](NC(=O)[C@H](Cc1ccc(O)cc1)NC(=O)[C@H](Cc1ccc(O)cc1)NC(=O)[C@H](CO)NC(=O)CNC(=O)CNC(=O)[C@H](CC(N)=O)NC(=O)[C@H](CCCN=C(N)N)NC(=O)[C@H](CC(C)C)NC(=O)[C@@H](N)Cc1ccccc1)C(=O)N[C@H](C(=O)N1CCC[C@H]1C(=O)N[C@@H](C)C(=O)N[C@@H](Cc1ccccc1)C(=O)N[C@@H](CCCN=C(N)N)C(=O)NCC(=O)N[C@@H](CCCCN)C(=O)NCC(=O)O)C(C)C` [FLRNGGSYYIVPAFRGKG], the MIC was 10 µM (≈ 20 µg/mL) against Acinetobacter baumannii; 10 µM (≈ 20 µg/mL) with Enterobacter cloacae; 10 µM (≈ 20 µg/mL) in assay [26]; 10 µM (≈ 20 µg/mL) against Klebsiella aerogenes; 10 µM (≈ 20 µg/mL) against Klebsiella oxytoca; greater than 10 µM in the assay on Klebsiella pneumoniae. Besides, the MIC was 10 µM (≈ 20 µg/mL) in the assay on Proteus mirabilis; greater than 10 µM against Pseudomonas aeruginosa; 10 µM (≈ 20 µg/mL) against Salmonella enterica; 10 µM (≈ 20 µg/mL) in the assay with Serratia marcescens; greater than 10 µM in the assay with Staphylococcus aureus; 10 µM (≈ 20 µg/mL) in assay [27]. The MIC in assay [28] and in assay [29] was 10 µM (≈ 20 µg/mL) in each case.
